From patent US20120058935A1, “ANTIMICROBIAL COMPOSITIONS AND METHODS OF USE THEREFORE” (priority 2009, published 2012)
Values after ≈ are worked out from the molar mass of the structure shown. Like-named read-outs stand apart in the source and are kept apart here. Ends that are not written are not given here.

Key:
[1] = clinical trial, AD patients, ref. [34]; cited from earlier work
[2] = test system: 12 microorganisms; assay: Antimicrobial activity against the panel of 12 microorganisms (summary); format: cell-based; conditions: summary in words of the MIC experiments
Method: Peptide antimicrobial activity was determined as minimal inhibitory concentration (MIC). Experiments identified peptide MIC by broth microdilution susceptibility test in conjunction with CFU and alamar blue assays. Inoculum containing mid-logarithmic phase cells was dispensed into the wells of polypropylene 96-well plates (Fisher, Pittsburgh, Pa.) containing seven two-fold dilutions of test peptide in growth media. Plates were then incubated aerobically overnight (12 to 18 hrs) at 37° C. Peptide MIC was taken as the lowest concentration able reduce cell growth by CFU and alamar blue assays by at least two-fold and which correlated with the visible loss of a growth button on the bottom of microtiter wells. Experiments were repeated a minimum of three times for each organism, and tests included at least three replicates for each assay condition. Experiments included control serial dilutions of buffer vehicle alone.

[3] = test system: Pseudomonas aeruginosa; format: cell-based
Method: (§1) Bacteria were cultured aerobically in Mueller-Hinton broth (MHB), Brain and Heart Infusion broth (BHIB), or BHIB supplemented with 1% lysed horse blood and plated on Tryptone Soy Agar (TSA) plates containing 5% defibrinated sheep blood. […] Organisms were subcultured for 2 hrs to generate mid-logarithmic growth cultures for use as inoculates in experiments.
(§2) Bacteria inoculum cell densities were normalized to 5×10^5 cells/ml immediately before use photometrically and subsequently confirmed by colony count. Inoculum of C. albicans contained a cell density of 2.5×10^3 CFU/ml.
(§3) Bulk powdered peptides were first dissolved in 30% trifluoroethanol (TFE) at 1 mg/ml. […] Stock solutions at 2 mg/ml were prepared the day of experimentation from the peptide films by solubilizing a second time in either water or 20% TFE. Aβ stocks prepared in water were sonicated and insoluble peptide aggregates pelleted by centrifugation (10 min×16,000 g). Peptide concentrations in stock solutions were determined immediately before use by bicinchoninic acid (BCA) protein assay. […] For MIC experiments, peptides were serially diluted into growth media. For other experiments stocks were diluted into required working buffers. Experiments included controls for peptide buffer vehicle alone.
(§4) Experiments identified peptide MIC by broth microdilution susceptibility test in conjunction with CFU and alamar blue assays. […] Peptide MIC was taken as the lowest concentration able reduce cell growth by CFU and alamar blue assays by at least two-fold and which correlated with the visible loss of a growth button on the bottom of microtiter wells. Experiments were repeated a minimum of three times for each organism, and tests included at least three replicates for each assay condition. Experiments included control serial dilutions of buffer vehicle alone.

[4] = test system: Streptococcus pyogenes; format: cell-based
Method: as §1, §2, §3, §4

[5] = test system: Enterococcus faecalis; format: cell-based
Method: as §1, §2, §3, §4

[6] = test system: Listeria monocytogenes; format: cell-based
Method: as §1, §2, §3, §4

[7] = test system: Candida albicans; format: cell-based
Method: as §1, §2, §3, §4

[8] = test system: Staphylococcus epidermidis; format: cell-based
Method: as §1, §2, §3, §4

[9] = test system: E. faecalis; assay: E. faecalis growth curves with peptide (CFU with time); format: cell-based, Enterococcus faecalis; conditions: 25 μg/ml peptide; CFU counted with time (FIG. 1)
Method: Bacterial growth with time was monitored by inoculation of agar with diluted incubants and counting CFU. Representative data from six experiments is shown as mean signal of four replicates±s.e.m.
CFU assay; Serial dilutions of incubants were prepared and streaked onto the surface of agar. The agar plates were then incubated overnight at 37° C. and colonies forming units counted.

[10] = test system: Streptococcus pneumoniae; format: cell-based; conditions: ATCC 49619; BHIB/LHB; 12 hrs incubation at 37° C.
Method: as §1, §2, §3, §4

[11] = test system: Streptococcus agalactiae; format: cell-based; conditions: ATCC 12386; BHIB/LHB; 12 hrs incubation at 37° C.
Method: as §1, §2, §3, §4

[12] = test system: Staphylococcus aureus; format: cell-based; conditions: ATCC 25923; MHB; 12 hrs incubation at 37° C.
Method: as §1, §2, §3, §4

[13] = test system: Escherichia coli; format: cell-based; conditions: ATCC 25922; BHIB; 12 hrs incubation at 37° C.
Method: as §1, §2, §3, §4

[14] = test system: Streptococcus salivarius; format: cell-based; conditions: ATCC 13419; BHIB/LHB; 12 hrs incubation at 37° C.
Method: as §1, §2, §3, §4

[15] = test system: Streptococcus mitis; format: cell-based; conditions: ATCC 6249; BHIB/LHB; 12 hrs incubation at 37° C.
Method: as §1, §2, §3, §4

| Molecule | Inhibition of microbial growth, panel of 12 microorganisms [2] | MIC against Pseudomonas aeruginosa ([3]; 18 h) | MIC against Streptococcus pyogenes ([4]; 18 h) | MIC against Enterococcus faecalis ([5]; 18 h) | MIC against Listeria monocytogenes ([6]; 18 h) | MIC against Candida albicans ([7]; 18 h) | MIC against Staphylococcus epidermidis ([8]; 18 h) | other results |
| --- | --- | --- | --- | --- | --- | --- | --- | --- |
| C[C@@H](C(=O)O)c1ccc(-c2ccccc2)c(F)c1 [tarenflurbil] | – | – | – | – | – | – | – | Rates of infection in patients receiving the drug [1]: significantly increased rates of infection |
| recAβ42: Recombinant human Aβ42 purchased from rPeptide | Equivalent findings | – | – | – | – | – | – | – |
| DAEFGHDSGFEVRHQKLVFFAEDVGSNKGAIIGLMVGGVVIA [roAβ42] | demonstrated antimicrobial activity | >50 µg/mL | >50 µg/mL | 3.13 µg/mL | 6.25 µg/mL | 0.78 µg/mL | 3.13 µg/mL | – |
| CC[C@H](C)[C@H](NC(=O)[C@H](CCCCN)NC(=O)[C@H](CCC(=O)O)NC(=O)[C@H](CCCCN)NC(=O)[C@H](CO)NC(=O)[C@H](CCCCN)NC(=O)[C@H](CCCNC(=N)N)NC(=O)[C@H](Cc1ccccc1)NC(=O)[C@H](Cc1ccccc1)NC(=O)[C@H](CC(=O)O)NC(=O)CNC(=O)[C@H](CC(C)C)NC(=O)[C@@H](N)CC(C)C)C(=O)NCC(=O)N[C@@H](CCCCN)C(=O)N[C@@H](CCC(=O)O)C(=O)N[C@@H](Cc1ccccc1)C(=O)N[C@@H](CCCCN)C(=O)N[C@@H](CCCNC(=N)N)C(=O)N[C@H](C(=O)N[C@H](C(=O)N[C@@H](CCC(N)=O)C(=O)N[C@@H](CCCNC(=N)N)C(=O)N[C@H](C(=O)N[C@@H](CCCCN)C(=O)N[C@@H](CC(=O)O)C(=O)N[C@@H](Cc1ccccc1)C(=O)N[C@@H](CC(C)C)C(=O)N[C@@H](CCCNC(=N)N)C(=O)N[C@@H](CC(N)=O)C(=O)N[C@@H](CC(C)C)C(=O)N[C@H](C(=O)N1CCC[C@H]1C(=O)N[C@@H](CCCNC(=N)N)C(=O)N[C@H](C(=O)N[C@@H](CCC(=O)O)C(=O)N[C@@H](CO)C(=O)O)[C@@H](C)O)C(C)C)[C@@H](C)CC)C(C)C)[C@@H](C)CC [LL-37] | – | – | – | – | – | – | – | Mode of action on E. faecalis growth (bacteriostatic or bactericidal) [9]: potent bactericidal activity; MIC against Pseudomonas aeruginosa ([3]; ATCC 27853, BHIB, 18 hrs incubation at 37° C.): 6.25 µg/mL (≈ 1.39 µM); MIC against Streptococcus pneumoniae [10]: 1.56 µg/mL (≈ 0.347 µM); MIC against Streptococcus agalactiae [11]: 12.5 µg/mL (≈ 2.78 µM); MIC against Streptococcus pyogenes ([4]; ATCC 19615, BHIB/LHB, 18 hrs incubation at 37° C.): 6.25 µg/mL (≈ 1.39 µM); MIC against Staphylococcus aureus [12]: 6.25 µg/mL (≈ 1.39 µM); MIC against Escherichia coli [13]: 1.56 µg/mL (≈ 0.347 µM); MIC against Streptococcus salivarius [14]: 50 µg/mL (≈ 11.1 µM); MIC against Enterococcus faecalis ([5]; ATCC 29212, BHIB, 18 hrs incubation at 37° C.): 6.25 µg/mL (≈ 1.39 µM); MIC against Listeria monocytogenes ([6]; ATCC 19112, BHIB, 18 hrs incubation at 37° C.): 25 µg/mL (≈ 5.56 µM); MIC against Candida albicans ([7]; ATCC 10231, RPMI-1640, 18 hrs incubation at 37° C.): 6.25 µg/mL (≈ 1.39 µM); MIC against Staphylococcus epidermidis ([8]; ATCC 12228, BHIB, 18 hrs incubation at 37° C.): 25 µg/mL (≈ 5.56 µM); MIC against Streptococcus mitis [15]: 6.25 µg/mL (≈ 1.39 µM) |
| AIVVGGVMLGIIAGKNSGVDEAFFVLKQHHVEYGSDHRFEAD [reAβ42] | not inhibited | >50 µg/mL | >50 µg/mL | 50 µg/mL | >50 µg/mL | >25 µg/mL | >50 µg/mL | – |
